According to patent EP0349354A1, “Peptides PF10 to PF19 from a retro virus HIV, method for the synthesis of these peptides and their use, particularly in diagnostics” (INSTITUT PASTEUR, priority 1988, dated 1990):

Experiments:
[1] = system: anticorps anti-protéine F; assay: Western blot test on peptide spots with sera of HIV-1 infected patients; type: binding, humain; set-up: key to réaction avec sérum CHA 1/300, 10µl / réaction avec sérum LOM 1/100, 10µl / réaction avec sérum LOM 1/100, 5µl / réaction avec sérum CHA 1/300, 5µl / réaction avec sérum CHA 1/300, 2µl / réaction avec sérum CHA 1/300, 1µl / réaction avec sérum 1545 1/200, 10µl: ++ signifiant une réaction plus marquée
Method: Pour les besoins du test, les différents peptides PF16, PF19, PF13, PF17 utilisés sont dilués à une concentration de 2 mg/ml.
Sur une bande de papier BIORAD pour transblot, on dépose différents spots : 1µl, 2µl, 5µl, 10µl.
Après séchage on pratique un test Western Blot classique en utilisant comme anticorps des sérums de patients infectés par le virus HIV-1, positifs pour la protéine F, à des dilutions variant de 1/100 à 1/300.
Les peptides testés permettent d'aboutir aux résultats résumés dans le tableau 2 avec trois sérums différents anti-F ++ (++ signifiant une réaction plus marquée).

[2] = system: anticorps anti-nef; assay: ELISA for detection of anti-nef antibodies on coated peptides or nef; type: binding, humain; details: 500 ng coated per well
Method: Des plaques de microtitration à 96 puits ont été recouvertes une nuit avec 500 ng de protéine nef bactérienne, à 37°C ou avec 500 ng de peptides synthétiques par puits dans 50µl de PBS à pH 7,4. Après saturation avec 400 µl de PBS pH 7,4, contenant 5% de caséine, durant 1 heure à 37°C et lavage avec PBS à pH 7,4, 0,5% de BSA, 0,01% tween, 50 µl de sérums à différentes dilutions ont été ajoutés pendant 2 heures à 37°C. Après le rinçage, 50µl de complexes d'IgG de souris anti-humaine-(H + L)-peroxydase 1:1000 ont été incubés pendant 1 heure à 37°C. Après un nouveau rinçage, 100µl de OPD ont été ajoutés pendant 30mn à température ambiante dans l'obscurité. La réaction de l'enzyme a été arrêtée par addition de 50µl d'acide sulfurique 4N et la densité optique des plaques a été lue à 492 nm/620 nm. Les plaques recouvertes avec la caséine ont été utilisées comme contrôle négatif.
En vue d'étudier la possibilité d'utiliser des peptides synthétiques en tant qu'antigènes pour la détection d'anticorps anti-nef chez des patients infectés par HIV, 8 peptides synthétiques couvrant la totalité de la séquence de la protéine nef de HIV-1 (figure 4) ont été utilisés dans un test ELISA avec 31 sérums anti-nef positifs et 2 sérums anti-nef négatifs utilisés comme contrôle. Les recombinants nef ont été utilisés comme contrôle positif dans les tests ELISA et la caséine a été utilisée comme contrôle négatif. Les résultats de ces expériences sont donnés dans le tableau 4 qui illustre l'essai suivant: Essai ELISA sur 31 sérums anti-nef-positifs et 2 sérums anti-nef- négatifs, soit pré-recouverts avec des peptides synthétiques (PF 11 à PF 18), soit en utilisant nef, la caséine ou un mélange de peptides PF 12 et PF 17. Les sérums ont été sélectionnés au hasard parmi des sérums anti-nef positifs et anti-nefs négatifs testés par la méthode RIA en utilisant ¹²⁵I nef. L'intensité de l'immunoradioactivité est notée "-" pour une densité optique (OD) inférieure à 0,2; "+" pour OD = 0,2 à 0,4; "++" pour OD = 0,4 à 0,8 et "+++" pour OD = 0,8 à 2,0.

XCRGGLEGMFYSERRHKILNIYLEKEEGIIADZ [PF19]
réaction avec sérum CHA 1/300, 5µl ([1]; serum CHA diluted 1/300, spot 5µl of peptide at 2 mg/ml): ++ | réaction avec sérum CHA 1/300, 10µl ([1]; serum CHA diluted 1/300, spot 10µl of peptide at 2 mg/ml): ++ | réaction avec sérum LOM 1/100, 5µl ([1]; serum LOM diluted 1/100 (column outside the heading of positive sera), spot 5µl of peptide at 2 mg/ml): tr | réaction avec sérum LOM 1/100, 10µl ([1]; serum LOM diluted 1/100 (column outside the heading of positive sera), spot 10µl of peptide at 2 mg/ml): tr | réaction avec sérum P.6. 1/200, 5µl ([1]; serum P.6. diluted 1/200, spot 5µl of peptide at 2 mg/ml): tr

XGGKWSKSSVVGWPTVRERMRRAEPAADGVGAYCZ [PF11]
intensité de l'immunoréactivité (OD), Serum 1 ([2]; Serum 1, anti-nef positive): - (pour une densité optique (OD) inférieure à 0,2) | intensité de l'immunoréactivité (OD), Serum 2 ([2]; Serum 2, anti-nef positive): - (pour une densité optique (OD) inférieure à 0,2) | intensité de l'immunoréactivité (OD), Serum 3 ([2]; Serum 3, anti-nef positive): - (pour une densité optique (OD) inférieure à 0,2) | intensité de l'immunoréactivité (OD), Serum 4 ([2]; Serum 4, anti-nef positive): - (pour une densité optique (OD) inférieure à 0,2) | intensité de l'immunoréactivité (OD), Serum 5 ([2]; Serum 5, anti-nef positive): - (pour une densité optique (OD) inférieure à 0,2) | intensité de l'immunoréactivité (OD), Serum 6 ([2]; Serum 6, anti-nef positive): - (pour une densité optique (OD) inférieure à 0,2) | intensité de l'immunoréactivité (OD), Serum 7 ([2]; Serum 7, anti-nef positive): ++ (pour OD = 0,4 à 0,8) | intensité de l'immunoréactivité (OD), Serum 8 ([2]; Serum 8, anti-nef positive): - (pour une densité optique (OD) inférieure à 0,2) | intensité de l'immunoréactivité (OD), Serum 9 ([2]; Serum 9, anti-nef positive): - (pour une densité optique (OD) inférieure à 0,2) | intensité de l'immunoréactivité (OD), Serum 10 ([2]; Serum 10, anti-nef positive): - (pour une densité optique (OD) inférieure à 0,2) | intensité de l'immunoréactivité (OD), Serum 11 ([2]; Serum 11, anti-nef positive): ++ (pour OD = 0,4 à 0,8) | intensité de l'immunoréactivité (OD), Serum 12 ([2]; Serum 12, anti-nef positive): + (pour OD = 0,2 à 0,4) | intensité de l'immunoréactivité (OD), Serum 13 ([2]; Serum 13, anti-nef positive): - (pour une densité optique (OD) inférieure à 0,2) | intensité de l'immunoréactivité (OD), Serum 14 ([2]; Serum 14, anti-nef positive): - (pour une densité optique (OD) inférieure à 0,2) | intensité de l'immunoréactivité (OD), Serum 15 ([2]; Serum 15, anti-nef positive): - (pour une densité optique (OD) inférieure à 0,2) | intensité de l'immunoréactivité (OD), Serum 16 ([2]; Serum 16, anti-nef positive): - (pour une densité optique (OD) inférieure à 0,2) | intensité de l'immunoréactivité (OD), Serum 17 ([2]; Serum 17, anti-nef positive): - (pour une densité optique (OD) inférieure à 0,2) | intensité de l'immunoréactivité (OD), Serum 18 ([2]; Serum 18, anti-nef positive): - (pour une densité optique (OD) inférieure à 0,2) | intensité de l'immunoréactivité (OD), Serum 19 ([2]; Serum 19, anti-nef positive): +++ (pour OD = 0,8 à 2,0) | intensité de l'immunoréactivité (OD), Serum 20 ([2]; Serum 20, anti-nef positive): - (pour une densité optique (OD) inférieure à 0,2) | intensité de l'immunoréactivité (OD), Serum 21 ([2]; Serum 21, anti-nef positive): + (pour OD = 0,2 à 0,4) | intensité de l'immunoréactivité (OD), Serum 22 ([2]; Serum 22, anti-nef positive): - (pour une densité optique (OD) inférieure à 0,2) | intensité de l'immunoréactivité (OD), Serum 23 ([2]; Serum 23, anti-nef positive): - (pour une densité optique (OD) inférieure à 0,2) | intensité de l'immunoréactivité (OD), Serum 24 ([2]; Serum 24, anti-nef positive): - (pour une densité optique (OD) inférieure à 0,2) | intensité de l'immunoréactivité (OD), Serum 25 ([2]; Serum 25, anti-nef positive): +++ (pour OD = 0,8 à 2,0) | intensité de l'immunoréactivité (OD), Serum 26 ([2]; Serum 26, anti-nef positive): +++ (pour OD = 0,8 à 2,0) | intensité de l'immunoréactivité (OD), Serum 27 ([2]; Serum 27, anti-nef positive): - (pour une densité optique (OD) inférieure à 0,2) | intensité de l'immunoréactivité (OD), Serum 28 ([2]; Serum 28, anti-nef positive): + (pour OD = 0,2 à 0,4) | intensité de l'immunoréactivité (OD), Serum 29 ([2]; Serum 29, anti-nef positive): + (pour OD = 0,2 à 0,4) | intensité de l'immunoréactivité (OD), Serum 30 ([2]; Serum 30, anti-nef positive): - (pour une densité optique (OD) inférieure à 0,2) | intensité de l'immunoréactivité (OD), Serum 31 ([2]; Serum 31, anti-nef positive): +++ (pour OD = 0,8 à 2,0) | intensité de l'immunoréactivité (OD), Serum 32 ([2]; Serum 32, anti-nef negative control serum): - (pour une densité optique (OD) inférieure à 0,2) | intensité de l'immunoréactivité (OD), Serum 33 ([2]; Serum 33, anti-nef negative control serum): - (pour une densité optique (OD) inférieure à 0,2)
